# Measurements reported in ChEMBL document CHEMBL1255373, “In vitro antibacterial activity of CE-156811, a novel analog derived from hygromycin A” (2008).
# How the values were obtained:
# Format in all cases: functional
# Moraxella catarrhalis = experiment: Antibacterial activity against Moraxella catarrhalis clinical isolate by broth microdilution method
# Enterococcus faecium [1] = experiment: Antibacterial activity against vancomycin-resistant Enterococcus faecium 03B1022 by broth microdilution method
# Enterococcus faecalis [2] = experiment: Antibacterial activity against vancomycin-resistant Enterococcus faecalis clinical isolate by broth microdilution method
# Pseudomonas aeruginosa = experiment: Antibacterial activity against Pseudomonas aeruginosa clinical isolate by broth microdilution method
# Enterobacter cloacae = experiment: Antibacterial activity against Enterobacter cloacae clinical isolate by broth microdilution method
# Enterococcus faecalis [3] = experiment: Antibacterial activity against vancomycin-susceptible Enterococcus faecalis clinical isolate by broth microdilution method
# Staphylococcus aureus [4] = experiment: Antibacterial activity against glycopeptide-intermediate Staphylococcus aureus clinical isolate by broth microdilution method
# Streptococcus pyogenes [5] = experiment: Antibacterial activity against Streptococcus pyogenes clinical isolate by broth microdilution method
# Staphylococcus aureus [6] = experiment: Antibacterial activity against linezolid-resistant Staphylococcus aureus 01A1220 by broth microdilution method
# Corynebacterium sp. = experiment: Antibacterial activity against Corynebacterium sp. by broth microdilution method
# Staphylococcus aureus [7] = experiment: Antibacterial activity against methicillin-resistant Staphylococcus aureus 01A1095 by broth microdilution method
# Staphylococcus aureus [8] = experiment: Bacteriostatic activity against methicillin-resistant Staphylococcus aureus 01A1095 assessed as log reduction in bacterial growth at 1 to 8 times MIC after 24 hrs
# Staphylococcus = experiment: Antibacterial activity against coagulase-negative Staphylococcus clinical isolate by broth microdilution method
# Streptococcus pneumoniae [9] = experiment: Antibacterial activity against Streptococcus pneumoniae 02J1046 by broth microdilution method
# Citrobacter freundii = experiment: Antibacterial activity against Citrobacter freundii clinical isolate by broth microdilution method
# Serratia marcescens = experiment: Antibacterial activity against Serratia marcescens clinical isolate by broth microdilution method
# Enterococcus faecalis [10] = experiment: Antibacterial activity against linezolid-resistant Enterococcus faecalis 03A1128 by broth microdilution method
# Streptococcus pneumoniae [11] = experiment: Bacteriostatic activity against Streptococcus pneumoniae 02J1046 assessed as log reduction in bacterial growth at 1 to 8 times MIC after 24 hrs
# Staphylococcus aureus [12] = experiment: Antibacterial activity against linezolid-resistant Staphylococcus aureus 01A1221 by broth microdilution method
# Staphylococcus aureus [13] = experiment: Antibacterial activity against methicillin-resistant Staphylococcus aureus clinical isolate by broth microdilution method
# Klebsiella pneumoniae [14] = experiment: Antibacterial activity against Klebsiella pneumoniae clinical isolate by broth microdilution method
# Morganella morganii = experiment: Antibacterial activity against Morganella morganii clinical isolate by broth microdilution method
# [15] = test system: Stenotrophomonas maltophilia; experiment: Antibacterial activity against Stenotrophomonas maltophilia clinical isolate by broth microdilution method
# Klebsiella oxytoca = experiment: Antibacterial activity against Klebsiella oxytoca clinical isolate by broth microdilution method
# Citrobacter koseri = experiment: Antibacterial activity against Citrobacter diversus clinical isolate by broth microdilution method
# Salmonella sp. = experiment: Antibacterial activity against Salmonella sp. by broth microdilution method
# Enterococcus faecium [16] = experiment: Antibacterial activity against linezolid-resistant Enterococcus faecium 03B1076 by broth microdilution method
# Streptococcus pyogenes [17] = experiment: Antibacterial activity against Streptococcus pyogenes 02C0203 by broth microdilution method
# Streptococcus pyogenes [18] = experiment: Bacteriostatic activity against Streptococcus pyogenes 02C0203 assessed as log reduction in bacterial growth at 1 to 8 times MIC after 24 hrs
# Staphylococcus aureus [19] = experiment: Antibacterial activity against […] Staphylococcus aureus ATCC 29213 by broth microdilution method
# Acinetobacter sp. = experiment: Antibacterial activity against Acinetobacter sp. by broth microdilution method
# Klebsiella aerogenes = experiment: Antibacterial activity against Enterobacter aerogenes clinical isolate by broth microdilution method
# Klebsiella pneumoniae [20] = experiment: Antibacterial activity against extended-spectrum beta-lactamase producing Klebsiella pneumoniae clinical isolate by broth microdilution method
# Enterococcus faecium [21] = experiment: Antibacterial activity against vancomycin-resistant Enterococcus faecium clinical isolate by broth microdilution method
# Enterococcus faecalis [22] = experiment: Antibacterial activity against […] Enterococcus faecalis ATCC 29212 by broth microdilution method
# Providencia rettgeri = experiment: Antibacterial activity against Providencia rettgeri clinical isolate by broth microdilution method
# Haemophilus influenzae = experiment: Antibacterial activity against Haemophilus influenzae clinical isolate by broth microdilution method
# Staphylococcus aureus [23] = experiment: Antibacterial activity against methicillin-susceptible Staphylococcus aureus clinical isolate by broth microdilution method
# Enterococcus faecium [24] = experiment: Antibacterial activity against linezolid-resistant Enterococcus faecium 03B1077 by broth microdilution method
# Shigella sp. = experiment: Antibacterial activity against Shigella sp. by broth microdilution method
# Enterococcus faecium [25] = experiment: Antibacterial activity against linezolid-resistant Enterococcus faecium 03B1075 by broth microdilution method
# Burkholderia cepacia = experiment: Antibacterial activity against Burkholderia cepacia clinical isolate by broth microdilution method
# Enterococcus faecium [26] = experiment: Antibacterial activity against vancomycin-susceptible Enterococcus faecium clinical isolate by broth microdilution method
# Legionella pneumophila = experiment: Antibacterial activity against Legionella pneumophila clinical isolate by broth microdilution method
# Proteus mirabilis = experiment: Antibacterial activity against Proteus mirabilis clinical isolate by broth microdilution method
# Streptococcus pneumoniae [27] = experiment: Antibacterial activity against penicillin-nonsusceptible Streptococcus pneumoniae clinical isolate by broth microdilution method
# Streptococcus pneumoniae [28] = experiment: Antibacterial activity against penicillin-susceptible Streptococcus pneumoniae clinical isolate by broth microdilution method
# Enterococcus faecium [29] = experiment: Antibacterial activity against linezolid-resistant Enterococcus faecium 03B1078 by broth microdilution method
# Enterococcus faecium [30] = experiment: Bacteriostatic activity against vancomycin resistant Enterococcus faecium 03B1022 assessed as log reduction in bacterial growth at 1 to 8 times MIC after 24 hrs
# Escherichia coli = experiment: Antibacterial activity against Escherichia coli clinical isolate by broth microdilution method
# [31] = test system: Staphylococcus epidermidis; experiment: Antibacterial activity against methicillin-susceptible Staphylococcus epidermidis clinical isolate by broth microdilution method
# Proteus vulgaris = experiment: Antibacterial activity against Proteus vulgaris clinical isolate by broth microdilution method
# Neisseria sp. = experiment: Antibacterial activity against Neisseria sp. by broth microdilution method
# Enterococcus faecium [32] = experiment: Antibacterial activity against linezolid-resistant Enterococcus faecium 03B1074 by broth microdilution method
# Enterococcus faecium [33] = experiment: Antibacterial activity against linezolid-resistant Enterococcus faecium 03B1073 by broth microdilution method
# Listeria monocytogenes = experiment: Antibacterial activity against Listeria monocytogenes clinical isolate by broth microdilution method
compound,measurement,setting,value
C/C(=C\c1cc(F)c(OC[C@H](F)C2CC2)cc1F)C(=O)N[C@@H]1[C@H](O)[C@@H](O)[C@H]2OCO[C@H]2[C@@H]1O,MIC50,Moraxella catarrhalis,2 µg/mL
same,MIC90,Moraxella catarrhalis,4 µg/mL
same,MIC,Enterococcus faecium [1],1 µg/mL
same,MIC50,Enterococcus faecalis [2],1 µg/mL
same,MIC90,Enterococcus faecalis [2],2 µg/mL
same,MIC50,Pseudomonas aeruginosa,> 64 µg/mL
same,MIC90,Pseudomonas aeruginosa,> 64 µg/mL
same,MIC50,Enterobacter cloacae,> 64 µg/mL
same,MIC90,Enterobacter cloacae,> 64 µg/mL
same,MIC50,Enterococcus faecalis [3],1 µg/mL
same,MIC90,Enterococcus faecalis [3],2 µg/mL
same,MIC,Staphylococcus aureus [4],0.125 µg/mL
same,MIC,Streptococcus pyogenes [5],0.5 µg/mL
same,MIC50,Streptococcus pyogenes [5],0.5 µg/mL
same,MIC90,Streptococcus pyogenes [5],1 µg/mL
same,MIC,Staphylococcus aureus [6],16 µg/mL
same,MIC50,Corynebacterium sp.,1 µg/mL
same,MIC90,Corynebacterium sp.,1 µg/mL
same,MIC,Staphylococcus aureus [7],1 µg/mL
same,FC,Staphylococcus aureus [8],1.5
same,MIC50,Staphylococcus,1 µg/mL
same,MIC90,Staphylococcus,2 µg/mL
same,MIC,Streptococcus pneumoniae [9],0.125 µg/mL
same,MIC50,Citrobacter freundii,> 64 µg/mL
same,MIC90,Citrobacter freundii,> 64 µg/mL
same,MIC50,Serratia marcescens,> 64 µg/mL
same,MIC90,Serratia marcescens,> 64 µg/mL
same,MIC,Enterococcus faecalis [10],16 µg/mL
same,FC,Streptococcus pneumoniae [11],1.5
same,MIC,Staphylococcus aureus [12],16 µg/mL
same,MIC50,Staphylococcus aureus [13],0.5 µg/mL
same,MIC90,Staphylococcus aureus [13],0.5 µg/mL
same,MIC50,Klebsiella pneumoniae [14],> 64 µg/mL
same,MIC90,Klebsiella pneumoniae [14],> 64 µg/mL
same,MIC50,Morganella morganii,> 64 µg/mL
same,MIC90,Morganella morganii,> 64 µg/mL
same,MIC50,[15],> 64 µg/mL
same,MIC90,[15],> 64 µg/mL
same,MIC50,Klebsiella oxytoca,> 64 µg/mL
same,MIC90,Klebsiella oxytoca,> 64 µg/mL
same,MIC50,Citrobacter koseri,> 64 µg/mL
same,MIC90,Citrobacter koseri,> 64 µg/mL
same,MIC50,Salmonella sp.,> 64 µg/mL
same,MIC90,Salmonella sp.,> 64 µg/mL
same,MIC,Enterococcus faecium [16],8 µg/mL
same,MIC,Streptococcus pyogenes [17],0.25 µg/mL
same,FC,Streptococcus pyogenes [18],1.5
same,MIC,Staphylococcus aureus [19],1 µg/mL
same,MIC50,Acinetobacter sp.,> 64 µg/mL
same,MIC90,Acinetobacter sp.,> 64 µg/mL
same,MIC50,Klebsiella aerogenes,> 64 µg/mL
same,MIC90,Klebsiella aerogenes,> 64 µg/mL
same,MIC50,Klebsiella pneumoniae [20],> 64 µg/mL
same,MIC90,Klebsiella pneumoniae [20],> 64 µg/mL
same,MIC50,Enterococcus faecium [21],1 µg/mL
same,MIC90,Enterococcus faecium [21],2 µg/mL
same,MIC,Enterococcus faecalis [22],1 µg/mL
same,MIC50,Providencia rettgeri,> 64 µg/mL
same,MIC90,Providencia rettgeri,> 64 µg/mL
same,MIC50,Haemophilus influenzae,4 µg/mL
same,MIC90,Haemophilus influenzae,8 µg/mL
same,MIC50,Staphylococcus aureus [23],0.5 µg/mL
same,MIC90,Staphylococcus aureus [23],1 µg/mL
same,MIC,Enterococcus faecium [24],2 µg/mL
same,MIC50,Shigella sp.,> 64 µg/mL
same,MIC90,Shigella sp.,> 64 µg/mL
same,MIC,Enterococcus faecium [25],4 µg/mL
same,MIC50,Burkholderia cepacia,> 64 µg/mL
same,MIC90,Burkholderia cepacia,> 64 µg/mL
same,MIC50,Enterococcus faecium [26],1 µg/mL
same,MIC90,Enterococcus faecium [26],2 µg/mL
same,MIC50,Legionella pneumophila,1 µg/mL
same,MIC90,Legionella pneumophila,2 µg/mL
same,MIC50,Proteus mirabilis,> 64 µg/mL
same,MIC90,Proteus mirabilis,> 64 µg/mL
same,MIC50,Streptococcus pneumoniae [27],0.25 µg/mL
same,MIC90,Streptococcus pneumoniae [27],0.5 µg/mL
same,MIC50,Streptococcus pneumoniae [28],0.25 µg/mL
same,MIC90,Streptococcus pneumoniae [28],0.5 µg/mL
same,MIC,Enterococcus faecium [29],4 µg/mL
same,FC,Enterococcus faecium [30],1.5
same,MIC50,Escherichia coli,> 64 µg/mL
same,MIC90,Escherichia coli,> 64 µg/mL
same,MIC50,[31],0.12 µg/mL
same,MIC90,[31],0.25 µg/mL
same,MIC50,Proteus vulgaris,> 64 µg/mL
same,MIC90,Proteus vulgaris,> 64 µg/mL
same,MIC50,Neisseria sp.,4 µg/mL
same,MIC90,Neisseria sp.,8 µg/mL
same,MIC,Enterococcus faecium [32],4 µg/mL
same,MIC,Enterococcus faecium [33],1 µg/mL
same,MIC,Listeria monocytogenes,4 µg/mL
same,MIC50,Listeria monocytogenes,4 µg/mL
same,MIC90,Listeria monocytogenes,8 µg/mL
O=C(N[C@H](CO)[C@H](O)c1ccc([N+](=O)[O-])cc1)C(Cl)Cl [CHLORAMPHENICOL],MIC,Staphylococcus aureus [6],> 32 µg/mL
same,MIC,Enterococcus faecalis [10],> 32 µg/mL
same,MIC,Staphylococcus aureus [12],32 µg/mL
same,MIC,Enterococcus faecium [16],32 µg/mL
same,MIC,Staphylococcus aureus [19],8 µg/mL
same,MIC,Enterococcus faecalis [22],8 µg/mL
same,MIC,Enterococcus faecium [24],8 µg/mL
same,MIC,Enterococcus faecium [25],32 µg/mL
same,MIC,Enterococcus faecium [29],16 µg/mL
same,MIC,Enterococcus faecium [32],32 µg/mL
same,MIC,Enterococcus faecium [33],8 µg/mL
